Experimental findings from patent US6756366B1, “Orally active androgens” (Akzo Nobel N.V., priority 1999, dated 2004) are described below.

Molecules are shown by their SMILES.

Data set [1] can be described thus: t1/2 after incubation with human hepatocytes. Format: in vitro ADME. The settings on record: male; cryopreserved human hepatocytes in suspension, 10 nM compound, 37° C., sampled at 0.5, 1 and 3 h, LC-MS/MS. The procedure: (§1) The half-life of a compound as a result of contact with human hepatocytes holds as a reliable indication of metabolic stability. As it is well known that the absorption of this class of steroids is high, this assay provides an in vitro model for oral activity in humans.
(§2) Hepatocytes collected from healthy young (25-45 year) male organ donors were cryo preserved in liquid nitrogen and kept there until use. They were thawed at 37° C. in a waterbath, placed immediately on ice, washed twice in one volume of cold (4° C.) incubation medium [William's medium E (without phenol red) with Glutamax I®, gentamicin 50 μg/ml, insulin 1 μM, hydrocortisone hemisuccinate 10 μM, fetal calf serum 0% (v/v)], counted and the viability checked by Trypan blue exclusion. Cells were incubated as suspensions in 12-wells (non-coated) plates at a nominal density of 0.5×10^6 cells/well in 1.5 ml medium at 37° C. with an air/O2/CO2 mixture (55/40/5). The plates were set on an orbital shaker at approximately 10 rpm.
(§3) The hepatocytes were incubated with 10 nM final concentration of the compound to be tested. The incubations were stopped after 0.5, 1 and 3 h by pipetting the whole incubation mixture into a glass tube and adding one volume of acetone on ice. The acetone was dried under a nitrogen flow at room temperature, the volume adjusted to 1.5 ml and the tubes were centrifuged at 4° C. at 10.000×g for 30 min. The de-proteinized supernatants were collected for LC-MS/MS analysis.

The next data set relates to serum LH. Put plainly: LH suppression assay in mature male castrated rat model. The settings on record: mature male castrated rats, po daily for 4 days in arachis oil suspension, serum LH 3 hours after last oral dose; for ED50: Rattus norvegicus, read-out: ED50 (po) required to suppress serum LH for 50% (±10%). Format: in vivo. Here is the method:
The in vivo potency of several androgens of the invention was determined in a mature male castrated rat model, in comparison with MENT.
In this model serum LH is high (50× fold higher than with intact rats, due to the absence of the negative feedback of testicular testosterone). These rats are po treated for 4 days daily with a given compound of the invention in a suspension fluid of arachisoil. Before dosing and 3 hours after the last oral dose blood is collected via tail vene and in the serum LH is determined. Potency of the androgens (ED50) are expressed as the amount (mg/kg) of androgen which suppresses serum LH for 50% (±10%).
The rat LH Time-Resolved Immuno Fluorometric Assay (TR-IFMA) has been developed in house using home made reagents, a monoclonal catching antibody directed against the β-subunit of human chorion gonadotrophin (hCG, which cross react with rat β-subunit) and a biotin labelled detecting antibody (rabbit polyclonal antibody directed against the alfa-subunit of recombinant rat LH). Recombinant rat LH was prepared according to the methods described by Hakola et al (1997). In this two-site-IFMA, only intact rat LH is determined by a final incubation with streptavidin-europium. The detection in the IFMA is based on fluorescence of the lanthanide europium during a relative long exitation period. The concentration range of rat LH standard is 0.001-10 ng/ml, for optimal accuracy measurements of serum LH serum samples were diluted 8-times with assay buffer [Hakola, K., Boogaart, P. V., Mulders, J., de Leeuw, R., Schoonen, W., Heyst, J. V., Swolfs, A., Casteren, J. V., Huhtaniemi, I., and Kloosterboer, H. J., Recombinant rat luteinizing hormone; production by Chinese hamster ovary cells, purification and functional characterization, Molecular & Cellular Endocrinology 128, 47 (1997)].

The subject of another data set is human hepatocytes. Put plainly: t1/2 after incubation with human hepatocytes. Type of data set: in vitro ADME. The settings on record: cryopreserved human hepatocytes in suspension, 10 nM compound, 37° C., sampled at 0.5, 1 and 3 h, LC-MS/MS. Here is the method:
as §1, §2, §3

Consider `CC[C@@H]1CC2=CCCC[C@@H]2[C@H]2CC[C@]3(C)[C@@H](O)CC[C@H]3[C@H]12`, for which the melting point was in the range of 155 to 157 °C.

Consider `CC[C@@H]1CC2=CC(=O)CC[C@@H]2[C@H]2CC[C@]3(CC)[C@@H](O)CC[C@H]3[C@H]12` [Example 13, (7α,17β)-7,13-Diethyl-17-hydroxygon-4-en-3-one], for which, in data set [1], the half-life at 10 nM was determined as 48 min. Take `C=C[C@@H]1CC2=CC(=O)CC[C@@H]2[C@@H]2[C@@H]1[C@@H]1CC[C@H](O)[C@@]1(C)C[C@@H]2C` [Example 12, (7α,11β,17β)-7-Ethenyl-17-hydroxy-11-methylestr-4-en-3-one]: in the data set on serum LH, the ED50 turned out to be 5 mg/kg.

For `C=C[C@@H]1CC2=CC(=O)CC[C@@H]2[C@H]2CC[C@]3(C)[C@@H](O)CC[C@H]3[C@@H]21` [Example 4, (7α,17β)-7-Ethenyl-17-hydroxyestr-4-en-3-one], the ED50 in the data set with serum LH turned out to be 2.5 mg/kg. Take `C[C@@H]1CC2=CC(=O)CC[C@@H]2[C@H]2CC[C@]3(C)[C@@H](O)CC[C@H]3[C@@H]21` [MENT, 7α-methyl-19-nortestosterone, reference compound]: in the data set on serum LH, the “ED50 (po) required to suppress serum LH for 50% (±10%)” value was found to be 10 mg/kg. Further, the “t1/2 after incubation with human hepatocytes” value in the data set with human hepatocytes was determined as 20 min.

Regarding `C=C[C@@H]1CC2=C/C(=N/O)CC[C@@H]2[C@H]2CC[C@]3(C)[C@@H](O)CC[C@H]3[C@@H]21`, the melting point is 206 to 224 °C. Turning to `CC[C@@H]1CC2=CC(=O)CC[C@@H]2[C@@H]2[C@@H]1[C@@H]1CC[C@H](O)[C@@]1(C)C[C@@H]2C` [Example 11, (7α,11β,17β)-7-Ethyl-17-hydroxy-11-methylestr-4-en-3-one], the ED50 in the data set with serum LH is 5 mg/kg. In data set [1], `C=C[C@@H]1CC2=CC(=O)CC[C@@H]2[C@H]2CC[C@]3(CC)[C@@H](O)CC[C@H]3[C@@H]21` [Example 14, (7α,17β)-7-Ethenyl-13-ethyl-17-hydroxygon-4-en-3-one] registered a half-life at 10 nM of 20 min. `C/C=C/[C@@H]1CC2=CC(=O)CC[C@@H]2[C@H]2CC[C@]3(C)[C@@H](O)CC[C@H]3[C@@H]21` [Example 6a, [7α(E),17β]-17-Hydroxy-7-(1-propenyl)estr-4-en-3-one]: in the data set on human hepatocytes, the “t1/2 after incubation with human hepatocytes” value came to 30 min. Take `CC[C@@H]1CC2=CC(=O)CC[C@@H]2[C@H]2CC[C@]3(C)[C@@H](O)CC[C@H]3[C@H]12` [Example 1, (7α,17β)-7-Ethyl-17-hydroxyestr-4-en-3-one]: the melting point lay in the range of 142.5 to 143.5 °C. For the same molecule, the 50% effective dose (ED50) with serum LH worked out at 2.5 mg/kg. This molecule also yielded a half-life at 10 nM in data set [1] of 48 min. As to `C[C@]12CC[C@H]3[C@@H]([C@H](C4CC4)CC4=CC(=O)CC[C@@H]43)[C@@H]1CC[C@@H]2O` [Example 10, (7α,17β)-7-Cyclopropyl-17-hydroxyestr-4-en-3-one], in data set [1], the half-life at 10 nM worked out at 30 min. `CC[C@@H]1CC2=C(CC[C@@H](O)C2)[C@H]2CC[C@]3(C)[C@@H](O)CC[C@H]3[C@H]12`: the melting point was in the range of 98 to 100 °C.

One may read the melting point as the temperature, or range, at which the solid turns liquid. In general, half-life refers to the time in which the quantity being followed falls by half. The low end stands for fast loss, the high end for slow loss. As usually defined, the ED50 is the dose at which the effect has come halfway, by size or by number of responders.
